Test results from ChEMBL document CHEMBL1142773, “1-(4-Amino-phenyl)-pyrrolidin-3-yl-amine and 6-(3-amino-pyrrolidin-1-yl)-pyridin-3-yl-amine derivatives as melanin-concentrating hormone receptor-1 antagonists” (Bioorg Med Chem Lett, 2005).

What was measured:
[1] = target: T1, Melanin-concentrating hormone receptor 1 (Homo sapiens, UniProt Q99705); test: Binding affinity towards human MCH-R1 evaluated by its ability to displace radioligand [125I]Tyr13]-MCH
[2] = target: T1, Melanin-concentrating hormone receptor 1; test: Inhibitory concentration against human MCH-R1-stimulated [Ca2+] influx

T1 sequence (Q99705 whole entry): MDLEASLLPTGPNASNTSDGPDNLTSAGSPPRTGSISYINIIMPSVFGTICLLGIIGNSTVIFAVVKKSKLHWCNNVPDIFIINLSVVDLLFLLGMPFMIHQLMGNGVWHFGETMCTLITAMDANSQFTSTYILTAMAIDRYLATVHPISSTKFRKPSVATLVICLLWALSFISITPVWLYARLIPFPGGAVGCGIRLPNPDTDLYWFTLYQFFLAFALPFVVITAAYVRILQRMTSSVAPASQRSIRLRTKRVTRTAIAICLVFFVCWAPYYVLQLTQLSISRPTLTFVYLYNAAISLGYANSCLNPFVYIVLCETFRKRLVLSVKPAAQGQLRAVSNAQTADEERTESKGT

Row | SMILES | Ki [1] | IC50 [2]
1 | CN(C)C1CCN(c2ccc(NC(=O)c3ccc(-n4ccnc4)cc3)cc2)C1 (stereo unspecified) | > 10000 nM | –
2 | CN(C(=O)OC(C)(C)C)C1CCN(c2ccc(NC(=O)c3ccc(-c4ccccc4)cc3)cc2)C1 (stereo unspecified) | > 10000 nM | –
3 | CN(C)C1CCN(c2ccc(NC(=O)c3ccc(N4CCCCC4)nc3)cc2)C1 (stereo unspecified) | 2400 nM | –
4 | CCN1CCN(c2ccc(C(=O)Nc3ccc(N4CCC(N(C)C)C4)cc3)cn2)CC1 (stereo unspecified) | > 10000 nM | –
5 | CN(C)C1CCN(c2ccc(NC(=O)NCCCc3ccccc3)cc2)C1 (stereo unspecified) | 43 nM | –
6 | CN(C)C1CCN(c2ccc(NC(=O)c3ccc4c(c3)C(=O)c3ccccc3-4)cc2)C1 (stereo unspecified) | > 10000 nM | –
7 | CN(C)C1CCN(c2ccc(NC(=O)c3ccc(-c4ccccc4)nc3)cc2)C1 (stereo unspecified) | 110 nM | –
8 | CN(Cc1ccccn1)C1CCN(c2ccc(NC(=O)c3ccc(-c4ccccc4)cc3)cc2)C1 (stereo unspecified) | 130 nM | –
9 | CN(C)C1CCN(c2ccc(NC(=O)c3ccc(Oc4ccccc4)cc3)cc2)C1 (stereo unspecified) | > 10000 nM | –
10 | CC(=O)N(C)C1CCN(c2ccc(NC(=O)c3ccc(-c4ccccc4)cc3)cc2)C1 (stereo unspecified) | 3000 nM | –
11 | CN(C)C1CCN(c2ccc(NC(=O)c3ccc(-c4cnco4)cc3)cc2)C1 (stereo unspecified) | > 10000 nM | –
12 | CN(C)C1CCN(c2ccc(NC(=O)CCCC(=O)c3ccccc3)cc2)C1 (stereo unspecified) | 250 nM | –
13 | CN(C)C1CCN(c2ccc(NC(=O)Cc3ccc(-c4ccccc4)cc3)cc2)C1 (stereo unspecified) | 4300 nM | –
14 | COc1ccc(CCCNC(=O)Nc2ccc(N3CCC(N(C)C)C3)cc2)cc1 (stereo unspecified) | 52 nM | –

Now those with a lower Ki [1], led by results:

Row | Ki [1] | IC50 [2] | SMILES
15 | 5.2 nM | – | CN(C)C1CCN(c2ccc(NC(=O)c3ccc(-c4ccccc4)cc3)cc2)C1 (stereo unspecified)
16 | 16 nM | – | COc1ccc(-c2ccc(C(=O)Nc3ccc(N4CCC(N(C)C)C4)cc3)cn2)cc1 (stereo unspecified)
17 | 31 nM | – | CN(Cc1ccccc1)C1CCN(c2ccc(NC(=O)c3ccc(-c4ccccc4)cc3)cc2)C1 (stereo unspecified)
18 | 34 nM | – | CN(C)C1CCN(c2ccc(NC(=O)c3ccc(-c4cccs4)cc3)cc2)C1 (stereo unspecified)
19 | 13 nM | – | CN(C)C1CCN(c2ccc(NC(=O)CCC(=O)c3ccc(Cl)cc3)cc2)C1 (stereo unspecified)
20 | 5.9 nM | – | CCN(C)C1CCN(c2ccc(NC(=O)c3ccc(-c4ccccc4)cc3)cc2)C1 (stereo unspecified)
21 | 12 nM | – | CN(C)C1CCN(c2ccc(NC(=O)C3CCC(c4ccc(Cl)cc4)CC3)cc2)C1 (stereo unspecified)
22 | 5.5 nM | – | CN(CC1CC1)C1CCN(c2ccc(NC(=O)c3ccc(-c4ccccc4)cc3)cc2)C1 (stereo unspecified)
23 | 14 nM | – | CN(C)C1CCN(c2ccc(NC(=O)C3CCC(c4ccccc4)CC3)cc2)C1 (stereo unspecified)
24 | 8.6 nM | – | CN(CCCc1ccccc1)C1CCN(c2ccc(NC(=O)c3ccc(-c4ccccc4)cc3)cc2)C1 (stereo unspecified)
25 | 3.1 nM | 166 nM | CNC1CCN(c2ccc(NC(=O)c3ccc(-c4ccccc4)cc3)cc2)C1 (stereo unspecified)
